Test results reported in US20030236458A1, “Spectroscopic systems and methods for detecting tissue properties” (BIOPHYSICA LLC, priority 1999, published 2003).

Key:
hippocampal slice = assay: Spontaneous interictal-like bursts in hippocampal slices with modified bathing medium; assay type: cell-based, rat
hippocampal tissue slice = assay: Stimulation-evoked after discharge and intrinsic optical signals in hippocampal slices (Example 10); assay type: cell-based, rat
Protocol: Sprague-Dawley rats (male and female; 25 to 35 days old) were prepared as described in Aghajanian, A. K. and Rasmussen, K., Synapse 31:331, 1989; and Buckmaster, P. S., Strowbridge, B. W., Schwartzdroin, P. A., J. Neurophysiol. 70:1281, 1993. In most hippocampal slice experiments, simultaneous extracellular field electrode recordings were obtained from CA1 and CA3 areas. For stimulation-evoked after discharge (13 slices, 8 animals), the concentration of Mg^2+ in the bathing medium was reduced to 0.9 mM. A bipolar tungsten stimulating electrode was placed on the Schaffer collaterals to evoke synaptically driven field responses in CA1; stimuli consisted to 100 to 300-μs-duration pulses at an intensity of four times population-spike threshold. After discharges were evoked by a 2-[…] of such stimuli delivered at 60 Hz. […] In all treatments, perfusion with furosemide-containing medium was begun after a consistent level of bursting had been established.
For imaging of intrinsic optical signals, the tissue was illuminated with a beam of white light (tungsten filament light and lens system; Dedotec USA, Lodi, N.J.) directed through the microscope condenser. The light was controlled and regulated (power supply: Lambda Electronics, Melville, N.Y.) to minimize fluctuations and filtered (695 nm long-pass) so that the slice was transilluminated with long wavelengths (red). Image frames were acquired with a charge-coupled device camera (Dage-MTI) at 30 Hz and were digitized at 8 bits with a spatial resolution of 512 by 480 pixels by means of an Imaging Technology Series 151 imaging system; gains and offsets of the camera-control site and the analog-to-digital board were adjusted to optimize the sensitivity of the system. Imaging hardware was controlled by a 486-PC-compatible computer running software written by D. Hochman and developed with commercially available software tools (Microsoft's C/C++ Compiler and Imaging Technology's ITEX library). To increase signal-to-noise ratio, an averaged image was composed from 16 individual image-frames, integrated over 0.5 s and averaged together. An experimental series typically involved the continuous acquisition of a series of averaged images over a several minute time period; at least 10 of these averaged images were acquired as control images before stimulation. Pseudocolored images were calculated by subtracting the first control image from subsequently acquired images and assigned a color lookup table to the pixel values. For these images, usually a linear low-pass filter was used to remove high-frequency noise and a linear-histogram stretch was used to map the pixel values over the dynamic range of the system. All operations on these images were linear so that quantitative information was preserved.

glioma [1] = details: rat, in vivo
Text: This example illustrates a series of experiments using a rat glioma model and optical detection techniques through an intact skull to investigate whether the inventive method and inventive device could function in to image tumor tissue through an intact skull and through intact skin prior to or after surgery. Far red wavelengths of emr are known to penetrate through bone and skin. Imaging of tumor tissue was attempted through the intact skull of the rat. The extent of tumor identified was not as accurate as with the cortex exposed, however, the area lying beneath the skull with tumor tissue was easily identified, localized and continued to concentrate dye after several minutes.
An image was taken for a grey-scale image of the cranial surface of a rat. The sagital suture runs down the center of the image. Tumor cells had been injected into the left side some days earlier so that this animal had developed a glioma on the left hemisphere of its brain. The right hemisphere was normal. A site 1 laid over the suspect region of brain tumor, and a site 2 laid over normal tissue. A difference image was acquired at 1 second after indocyanine green dye had been intravenously injected into the animal. The region containing tumor tissue becomes immediately visible through the intact cranium. […] A concentration of dye in the center of this difference image was observed and depicted dye circulating in the sagital sinus.
The optical changes were determined by the average optical change in a site placed directly over the tumor and over the normal hemisphere. The increase in absorption is a function of the concentration of dye in the tissue at a particular time. The graph labeled “extracranial tumor” is a plot of the dynamics of the absorption changes from the tumor area. The graph labeled “extracranial: normal” is a plot of the dynamics of the absorption change from the non-tumor area.

[2] = system: malignant CNS tumor (glioblastoma; astrocytoma, Grade IV); assay: Optical imaging of dye perfusion in a highly malignant CNS tumor (Example 4); assay type: in vivo, human
Text: This example illustrates the image of a highly malignant CNS tumor (glioblastoma). A patient was imaged in a neurosurgical procedure as described in Example 1. A series of images were taken from the cortex of a patient with a malignant CNS tumor (glioblastoma; astrocytoma, Grade IV). […] A difference image was obtained at 15 seconds after intravenous injection of indocyanine green, showing the dynamics of dye perfusion in the first seconds in malignant tissue are […] to those in the first few seconds of benign tumor tissue. […] Therefore, it is possible with this device to identify malignant tumor tissue, distinguish intraoperatively between normal and malignant tumor tissue, and to distinguish between the various grades of tumor (e.g., normal vs. benign vs. malignant). Thus, it is possible to not only image the location of tumor tissue, but also to grade the tumor with more malignant tumors retaining dye for a longer period of time than a lower grade tumor.

glioma [3] = system: glioma; parameters: species or system rat; details: in vivo
Text: This example illustrates a series of experiments using a rat glioma model intraoperatively to investigate whether the inventive method and inventive device could function in an operating room setting to provide real time information to the surgeon regarding resection of all tumor tissue. The rat glioma model is a standard predictive model and was used to delineate dye uptake, clearance and overall parameters of optical imaging that result in the best images. The advantages of this model are the ability to consistently get reproducible tumors for imaging studies and to be able to rescect tumor under an operating microscope and still find residual tumor with the inventive optical imaging. A disadvantage of this model is the more sarcoma-like appearance of the tumor and a lesser degree of vascularity compared to human gliomas.
Briefly, the rat glioma model uses an ethylnitrosourea-induced F-344 rat tumor line developed from a clonal population of a spinal malignant astrocytoma. […] The glioma cells were maintained in Weymouth's medium supplemented with 10% fetal calf serum. Viable cells (5×10^4) were trypsinized from a monolayer culture and implanted stereotaxically into the right cerebral hemisphere of 30 syngeneic female rats, each weighing 140-160 g. The stereotaxic coordinates for right frontal lobe implantation were 4.5 mm anterior to the frontal zero plane, 3 mm right from the midline and 6 mm deep. The rats were anesthetized for implantation. The heads were shaved and scalps opened, and a 1 mm burr hole made at the appropriate coordinates. The cells were injected through a 27 gauge needle, the needle left in place for 30 sec post injection and the hole was covered with bone wax: The scalp was sutured and the animals observed for 3-4 hrs until they returned to normal activity and feeding. The animals were used !I 0-14 days after tumor implantation. In this model, animals begin to show clinical symptoms from the tumor by 16-19 days, such as decreased activity and feeding, hemiparesis and eventually succumb between 19-27 days from mass effects due to tumor expansion.
Fourteen animals underwent complete study, including imaging before and after resection of the tumor. For study, the animals were anesthetized with 2% isoflurane, and the femoral vein canulated for administration of the dye. Anesthesia was maintained with a chloralsoe (50 mg/kg administered ip) and urethane (160 mg/kg administered ip). The animals were placed in a stereotaxic holder. Imaging studies were then carried out before or after removal of the cranium. The tumor typically occupied the anterior one half to two thirds of the right hemisphere exposure. […]

[4] = system: low grade human CNS tumor; assay: Optical imaging of dye perfusion in a low grade human CNS tumor (Example 3); assay type: in vivo
Protocol: This example illustrates the use of a contrast enhancing agent, indocyanine green, to identify and spatially localize a low grade human CNS tumor. An MRI scan was conducted before the operation. Additionally, the patient was investigated for tumor tissue using the apparatus described according to the invention and specifically described above.
The area of interest was evenly illuminated by a fiber optic light source with the radiation passing through a beam splitter, controlled by a D.C. regulated power supply (Lambda, Inc.) and passed through a 695 nm long pass filter. Images were acquired with a CCD camera (COHU 6500) fitted to the operating microscope with a specially modified cineadaptor. The cortex was stabilized with a glass footplate. Images were acquired at 30 Hz and digitized at 8 bits (512×480 pixels, using an Imaging Technology, Inc. Series 151 system, Woburn, Mass.). Geometrical transformations were applied to images to compensate for small amounts of patient motion (Wohlberg, Digital Imaging Warping, IEEE Computer Society: Los Alamitos, Calif., 1988). […] Raw data (i.e., no digital enhancement) were used for determining the average optical change in specified regions (average size site was 30×30 pixels or 150-250 um^2). For pseudocolor images, a linear low pass filter removed high frequency noise and linear histogram transformations were applied. Noise was defined as the standard deviation of fluctuations in sequentially acquired control images as 0.003-0.009.
An averaged control image was obtained of the particular cortical surface area of interest. Indocyanine green dye was administered into a peripheral intravenous catheter as a bolus at Time 0. Lettered labels were placed upon the brain by the surgeon overlay the tumor as identified intraoperatively by ultrasound. However, tumors of this type and grade are notoriously difficult to distinguish from normal tissue once the surgical removal of the tumor has begun. Difference images were taken approximately 15 seconds after intravenous injection of dye (indocyanine green at 1 mg/kg), and 30 seconds after dye administration. […] Therefore, it is possible to image even low grade tumors with this apparatus. Furthermore, it is possible to distinguish, intraoperatively, low grade tumor tissue from surrounding normal tissue.

[5] = 2.5 mM in medium, 20 minutes of perfusion, stimulation at 60 Hz

Nc1ccncc1 [4-AP]
spontaneous interictal-like bursts, average (hippocampal slice; 200 to 300 μM in bathing medium, 4 slices, 2 animals): 33 bursts/min

[K+] [K^+]
spontaneous interictal-like bursts, average (hippocampal slice; 10 mM in bathing medium, 6 slices, 4 animals): 81 bursts/min

CN1CCc2cc3c(cc2[C@H]1[C@@H]1OC(=O)c2c1ccc1c2OCO1)OCO3 [bicuculine]
spontaneous interictal-like bursts, average (hippocampal slice; 50 to 100 in bathing medium, 4 slices, 3 animals): 14 bursts/min

NS(=O)(=O)c1cc(C(=O)O)c(NCc2ccco2)cc1Cl [furosemide]
field response to the test pulse (hippocampal tissue slice; 2.5 mM in medium, 20 minutes of perfusion): hyperexcitable field response (multiple population spikes) | electrical after discharge (epileptiform) activity (hippocampal tissue slice; [5]): blocks | stimulation-evoked optical changes (intrinsic optical signal) (hippocampal tissue slice; [5]): blocks | response after washout (hippocampal tissue slice; 45 minutes of perfusion with normal bathing medium): restoration of the initial response pattern

CC1(C)C(/C=C/C=C/C=C/C=C2\N(CCCCS(=O)(=O)O)c3ccc4ccccc4c3C2(C)C)=[N+](CCCCS(=O)(=O)[O-])c2ccc3ccccc3c21 [indocyanine green]
plateau phase optical change, normal brain (glioma [1]; 60 seconds): 3.1±0.7% | plateau phase optical change, tumor tissue (glioma [1]; 60 seconds): 40.5±9.6% | peak optical change, normal brain imaged through the cranium (glioma [1]; iv): 7.8±2.3% | peak optical change, tumor imaged through the cranium (glioma [1]; iv): 13.1±3.9% | intensity in malignant tissue compared to normal tissue ([2]; 30 seconds after intravenous injection): even more intense | retention of dye in malignant tumor tissue compared to benign tumor tissue ([2]; 1 minute and 10 minutes after dye injection): retained significantly longer | duration of prolonged increase in the optical signal in the tumor (glioma [3]; female, F-344, rat): > 2 min | time after dye injection at which optical signals began to change (glioma [3]; female, F-344, rat): 2 to 3 s | dye in tumor tissue versus normal tissue (glioma [3]; rat): still collecting in tumor tissue | dye in the cerebrospinal fluid after administration (glioma [3]; rat, iv): No dye was found | tissue staining in difference images, tumor tissue ([4]; 1 mg/kg intravenous bolus, approximately 15 and 30 seconds after dye administration): first tissue staining | time at which all tissue (both normal and abnormal) showed staining ([4]; 1 mg/kg intravenous, low grade tumor): 45 s | clearance of dye from the area of interest ([4]; five minutes after dye administration, low grade tumor): complete clearance | entry into low grade tumor tissue compared to normal brain tissue ([4]; intravenous): faster than normal brain tissue
